This is an account of results in the supplement of paper PMC10307832.

Holding throughout (test): relative viability (nuclei count vs DMSO), 5 days (fraction); higher = more cells survive
Compound in the experiment “Pictilisib + Trametinib”: CS(=O)(=O)N1CCN(Cc2cc3nc(-c4cccc5[nH]ncc45)nc(N4CCOCC4)c3s2)CC1 [Pictilisib] + CC(=O)Nc1cccc(-n2c(=O)n(C3CC3)c(=O)c3c(Nc4ccc(I)cc4F)n(C)c(=O)c(C)c32)c1 [Trametinib] (partner 0.02 µM)
In short, it runs like this: (§1)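 Lung cancer cell lines were seeded in 1536-well plates and dosed by pin tool the next day, with either a single drug or a fixed anchor-drug dose combined with five library-drug doses (not always all listed) spaced in √10 steps. Five days later, one step fixed the cells and stained their nuclei (final 0.05% Triton X-100, 1% formaldehyde, 1 ug/ml Hoechst), and nuclei were counted on 4× images. Relative viability is the nuclei count in treated wells divided by the count in vehicle wells, and each value is the median of duplicate plates.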

Compound in the experiment “Pictilisib + Pemetrexed”: CS(=O)(=O)N1CCN(Cc2cc3nc(-c4cccc5[nH]ncc45)nc(N4CCOCC4)c3s2)CC1 [Pictilisib] + Nc1nc2[nH]cc(CCc3ccc(C(=O)N[C@@H](CCC(=O)O)C(=O)O)cc3)c2c(=O)[nH]1 [Pemetrexed] (partner 0.2 µM)
In short, it runs like this:
as §1

Compound in the experiment “MK-2206 + Bortezomib”: NC1(c2ccc(-c3nc4ccn5c(=O)[nH]nc5c4cc3-c3ccccc3)cc2)CCC1 [MK-2206] + CC(C)C[C@H](NC(=O)[C@H](Cc1ccccc1)NC(=O)c1cnccn1)B(O)O [Bortezomib] (partner 0.002 µM)
In short, it runs like this: as §1

Compound in the experiment “MK-2206 + Lapatinib”: NC1(c2ccc(-c3nc4ccn5c(=O)[nH]nc5c4cc3-c3ccccc3)cc2)CCC1 [MK-2206] + CS(=O)(=O)CCNCc1ccc(-c2ccc3ncnc(Nc4ccc(OCc5cccc(F)c5)c(Cl)c4)c3c2)o1 [Lapatinib] (partner 2 µM)
The procedure, abridged:
as §1

Compound in the experiment “MK-2206 + Linsitinib”: NC1(c2ccc(-c3nc4ccn5c(=O)[nH]nc5c4cc3-c3ccccc3)cc2)CCC1 [MK-2206] + C[C@]1(O)C[C@@H](c2nc(-c3ccc4ccc(-c5ccccc5)nc4c3)c3c(N)nccn32)C1 [Linsitinib] (partner 1 µM)
In short, it runs like this: as §1

In the case of NCI-H1975, the relative viability with Pictilisib + Trametinib (first compound 0.02 µM) turned out to be 0.326; with Pictilisib + Trametinib (first compound 0.06325 µM), 0.369; with Pictilisib + Trametinib (first compound 0.6325 µM), 0.194; with Pictilisib + Trametinib (first compound 2 µM), 0.142; with Pictilisib + Pemetrexed (first compound 0.02 µM) it was 0.304; in the experiment with Pictilisib + Pemetrexed (first compound 0.06325 µM), 0.301. Also, the relative viability was found to be 0.272 in the experiment with Pictilisib + Pemetrexed (first compound 0.6325 µM); 0.193 in the experiment with Pictilisib + Pemetrexed (first compound 2 µM); 0.464 with MK-2206 + Bortezomib (first compound 0.01 µM); 0.34 with MK-2206 + Bortezomib (first compound 0.03162 µM); 0.28 with MK-2206 + Bortezomib (first compound 0.3162 µM); 0.261 in the experiment with MK-2206 + Bortezomib (first compound 1 µM). The relative viability is 0.837 with MK-2206 + Lapatinib (first compound 0.01 µM); 0.996 in the experiment with MK-2206 + Lapatinib (first compound 0.03162 µM); 0.781 with MK-2206 + Lapatinib (first compound 0.3162 µM); 0.534 in the experiment with MK-2206 + Lapatinib (first compound 1 µM); 1.02 in the experiment with MK-2206 + Linsitinib (first compound 0.01 µM); 0.81 in the experiment with MK-2206 + Linsitinib (first compound 0.03162 µM). The relative viability was determined as 0.679 with MK-2206 + Linsitinib (first compound 0.3162 µM) and 0.72 in the experiment with MK-2206 + Linsitinib (first compound 1 µM).

As to NCI-H460, the relative viability was found to be 0.157 with Pictilisib + Trametinib (first compound 0.02 µM); 0.215 in the experiment with Pictilisib + Trametinib (first compound 0.06325 µM); 0.0736 in the experiment with Pictilisib + Trametinib (first compound 0.6325 µM); 0.0266 with Pictilisib + Trametinib (first compound 2 µM); 0.0594 with Pictilisib + Pemetrexed (first compound 0.02 µM); 0.0727 with Pictilisib + Pemetrexed (first compound 0.06325 µM). Further, the relative viability with Pictilisib + Pemetrexed (first compound 0.6325 µM) amounted to 0.0616; with Pictilisib + Pemetrexed (first compound 2 µM), 0.0599; with MK-2206 + Bortezomib (first compound 0.01 µM), 1.03; with MK-2206 + Bortezomib (first compound 0.03162 µM), 1.2; with MK-2206 + Bortezomib (first compound 0.3162 µM), 0.97; in the experiment with MK-2206 + Bortezomib (first compound 1 µM) it was 1.06. Besides, the relative viability was 0.914 with MK-2206 + Lapatinib (first compound 0.01 µM); 1.3 in the experiment with MK-2206 + Lapatinib (first compound 0.03162 µM); 0.914 with MK-2206 + Lapatinib (first compound 0.3162 µM); 0.95 in the experiment with MK-2206 + Lapatinib (first compound 1 µM); 0.733 with MK-2206 + Linsitinib (first compound 0.01 µM); 0.801 with MK-2206 + Linsitinib (first compound 0.03162 µM). Besides, the relative viability is 0.325 in the experiment with MK-2206 + Linsitinib (first compound 0.3162 µM) and 0.229 with MK-2206 + Linsitinib (first compound 1 µM).

Regarding EPLC-272H, the relative viability came to 0.275 with Pictilisib + Trametinib (first compound 0.02 µM); 0.278 with Pictilisib + Trametinib (first compound 0.06325 µM); 0.212 with Pictilisib + Trametinib (first compound 0.6325 µM); 0.126 with Pictilisib + Trametinib (first compound 2 µM); 0.297 with Pictilisib + Pemetrexed (first compound 0.02 µM); 0.342 with Pictilisib + Pemetrexed (first compound 0.06325 µM). For the same cell line, the relative viability with Pictilisib + Pemetrexed (first compound 0.6325 µM) worked out at 0.231; in the experiment with Pictilisib + Pemetrexed (first compound 2 µM) it was 0.185; with MK-2206 + Bortezomib (first compound 0.01 µM), 1.05; with MK-2206 + Bortezomib (first compound 0.03162 µM) it was 1.06; with MK-2206 + Bortezomib (first compound 1 µM), 1.01; in the experiment with MK-2206 + Lapatinib (first compound 0.01 µM), 1.06. The relative viability with MK-2206 + Lapatinib (first compound 0.03162 µM) was 0.916; with MK-2206 + Lapatinib (first compound 1 µM), 1.33; in the experiment with MK-2206 + Linsitinib (first compound 0.01 µM), 1.17; with MK-2206 + Linsitinib (first compound 0.03162 µM), 1.18; with MK-2206 + Linsitinib (first compound 1 µM), 1.15.

Take SK-LU-1: the relative viability with Pictilisib + Trametinib (first compound 0.02 µM) came out at 0.459; with Pictilisib + Trametinib (first compound 0.06325 µM), 0.47; in the experiment with Pictilisib + Trametinib (first compound 0.6325 µM), 0.355; in the experiment with Pictilisib + Trametinib (first compound 2 µM), 0.32; with Pictilisib + Pemetrexed (first compound 0.02 µM), 0.967; with Pictilisib + Pemetrexed (first compound 0.06325 µM), 1.07. For the same cell line, the relative viability worked out at 0.835 with Pictilisib + Pemetrexed (first compound 0.6325 µM); 0.624 with Pictilisib + Pemetrexed (first compound 2 µM); 1.28 with MK-2206 + Bortezomib (first compound 0.01 µM); 1.22 with MK-2206 + Bortezomib (first compound 0.03162 µM); 1.01 with MK-2206 + Bortezomib (first compound 0.3162 µM); 0.747 with MK-2206 + Bortezomib (first compound 1 µM). Besides, the relative viability amounted to 0.91 with MK-2206 + Lapatinib (first compound 0.01 µM); 0.861 in the experiment with MK-2206 + Lapatinib (first compound 0.03162 µM); 0.822 in the experiment with MK-2206 + Lapatinib (first compound 0.3162 µM); 0.967 with MK-2206 + Lapatinib (first compound 1 µM); 1.19 with MK-2206 + Linsitinib (first compound 0.01 µM); 1.02 in the experiment with MK-2206 + Linsitinib (first compound 0.03162 µM). Moreover, the relative viability with MK-2206 + Linsitinib (first compound 0.3162 µM) worked out at 0.987; with MK-2206 + Linsitinib (first compound 1 µM) it was 1.01.
